PMC11412156 (Journal of medicinal chemistry, 2024)
One block for each compound: values may come before it.

How the values were obtained:
HDAC6 = molecular target: T1, HDAC6 (Homo sapiens, UniProt Q9UBN7); assay: HDAC enzyme-based fluorogenic assay, HDAC6; format: biochemical; conditions: final concentration of 2 μM, preliminary screen
T1 sequence (Q9UBN7 1-1215): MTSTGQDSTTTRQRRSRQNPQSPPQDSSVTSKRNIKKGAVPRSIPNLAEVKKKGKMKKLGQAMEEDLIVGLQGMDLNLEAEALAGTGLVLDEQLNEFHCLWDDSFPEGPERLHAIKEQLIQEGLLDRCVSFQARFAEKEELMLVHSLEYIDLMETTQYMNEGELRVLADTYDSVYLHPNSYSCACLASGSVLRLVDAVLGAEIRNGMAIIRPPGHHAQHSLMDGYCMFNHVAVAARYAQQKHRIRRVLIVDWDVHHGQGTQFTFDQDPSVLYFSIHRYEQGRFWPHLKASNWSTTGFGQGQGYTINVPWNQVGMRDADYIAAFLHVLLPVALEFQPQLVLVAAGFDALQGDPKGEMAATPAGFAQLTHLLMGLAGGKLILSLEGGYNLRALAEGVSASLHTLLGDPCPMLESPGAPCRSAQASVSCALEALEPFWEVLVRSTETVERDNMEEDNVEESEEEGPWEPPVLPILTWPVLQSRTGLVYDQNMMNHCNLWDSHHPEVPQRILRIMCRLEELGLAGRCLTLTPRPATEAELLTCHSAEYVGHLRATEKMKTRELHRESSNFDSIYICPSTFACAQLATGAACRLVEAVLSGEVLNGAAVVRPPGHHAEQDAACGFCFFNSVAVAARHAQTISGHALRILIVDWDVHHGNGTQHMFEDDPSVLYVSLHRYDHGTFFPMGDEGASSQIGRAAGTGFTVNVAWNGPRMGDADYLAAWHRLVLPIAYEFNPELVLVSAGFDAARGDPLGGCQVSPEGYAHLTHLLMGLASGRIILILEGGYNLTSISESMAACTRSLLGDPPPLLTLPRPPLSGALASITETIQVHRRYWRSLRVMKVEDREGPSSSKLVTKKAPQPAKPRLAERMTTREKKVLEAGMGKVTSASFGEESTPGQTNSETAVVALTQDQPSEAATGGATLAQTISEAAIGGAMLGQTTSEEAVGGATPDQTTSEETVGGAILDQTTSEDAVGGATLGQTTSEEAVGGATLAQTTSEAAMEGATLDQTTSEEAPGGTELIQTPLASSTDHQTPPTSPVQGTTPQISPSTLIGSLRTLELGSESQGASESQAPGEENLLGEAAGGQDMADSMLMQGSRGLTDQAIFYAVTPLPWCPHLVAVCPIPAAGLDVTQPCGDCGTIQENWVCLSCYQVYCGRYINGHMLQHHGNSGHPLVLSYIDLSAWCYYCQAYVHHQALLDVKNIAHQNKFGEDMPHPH

HsEH = molecular target: T2, HsEH (Homo sapiens, UniProt P34913); assay: fluorescent-based sEH assay with PHOME as substrate; format: biochemical
T2 sequence (P34913 1-555): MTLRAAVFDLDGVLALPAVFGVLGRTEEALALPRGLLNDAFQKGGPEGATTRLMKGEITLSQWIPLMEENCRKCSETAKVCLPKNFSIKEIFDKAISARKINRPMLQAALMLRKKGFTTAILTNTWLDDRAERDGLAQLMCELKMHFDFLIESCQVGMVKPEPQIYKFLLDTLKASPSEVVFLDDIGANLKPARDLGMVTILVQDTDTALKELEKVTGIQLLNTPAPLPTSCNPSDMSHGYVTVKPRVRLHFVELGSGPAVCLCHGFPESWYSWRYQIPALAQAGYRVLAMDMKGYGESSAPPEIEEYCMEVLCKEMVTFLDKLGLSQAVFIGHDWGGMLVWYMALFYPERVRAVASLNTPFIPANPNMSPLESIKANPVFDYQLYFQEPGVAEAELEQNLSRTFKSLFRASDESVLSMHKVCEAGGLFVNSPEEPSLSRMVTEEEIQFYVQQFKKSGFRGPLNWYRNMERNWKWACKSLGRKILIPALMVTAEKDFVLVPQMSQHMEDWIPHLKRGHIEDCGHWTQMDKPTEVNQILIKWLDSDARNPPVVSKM

MsEH = molecular target: T3, MsEH (Mus musculus, UniProt P34914); assay: as above; format: biochemical
T3 sequence (P34914 1-554): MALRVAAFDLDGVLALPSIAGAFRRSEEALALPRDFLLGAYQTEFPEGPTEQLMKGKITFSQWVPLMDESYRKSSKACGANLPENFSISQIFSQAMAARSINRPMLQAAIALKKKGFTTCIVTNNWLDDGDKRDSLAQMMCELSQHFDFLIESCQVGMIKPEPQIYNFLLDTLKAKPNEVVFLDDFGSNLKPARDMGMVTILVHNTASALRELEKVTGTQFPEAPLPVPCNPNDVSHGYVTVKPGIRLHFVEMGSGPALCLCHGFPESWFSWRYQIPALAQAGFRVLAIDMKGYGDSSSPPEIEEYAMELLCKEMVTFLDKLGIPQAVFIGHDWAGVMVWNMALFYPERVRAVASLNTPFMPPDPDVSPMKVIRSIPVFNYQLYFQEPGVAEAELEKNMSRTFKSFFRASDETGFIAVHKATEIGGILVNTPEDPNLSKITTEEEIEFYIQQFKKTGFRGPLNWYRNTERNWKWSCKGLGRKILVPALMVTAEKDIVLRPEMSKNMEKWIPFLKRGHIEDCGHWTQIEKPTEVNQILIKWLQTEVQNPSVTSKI

[1] = test system: xylene-induced ear swelling inflammation in mice; assay: Xylene-induced ear swelling inflammation model in mice; format: in vivo, Kunming mice; conditions: Table 7 dose study, 10 mg/kg by gavage for 7 days
[2] = test system: formalin-induced inflammatory pain in mice; assay: Formalin-induced inflammatory pain model in mice; format: in vivo, Kunming mice; conditions: dose study, Figure 15; 10 mg/kg, compared with the model group
[3] = In vitro metabolic stability in rat liver microsomes; format: in vitro ADME; conditions: for metabolic stability in RLM, column 0: incubation 0 min; for metabolic stability in RLM, column 0 / metabolic stability in RLM, column 10 / metabolic stability in RLM, column 30 / metabolic stability in RLM, column 45 / metabolic stability in RLM, column 60: 37 °C, NADPH; for metabolic stability in RLM, column 10: incubation 10 min; for metabolic stability in RLM, column 30: incubation 30 min; for metabolic stability in RLM, column 45: incubation 45 min; for metabolic stability in RLM, column 60: incubation 60 min; for t1/2 in RLM: rat liver microsomes

HDAC6 inhibitor rate (HDAC6): > 91%
IC50 (HsEH): 0.7 nM
IC50 (MsEH): 7.4 nM
Compound: Cc1ccc(NC(=O)Nc2ccc(C(=O)N3CCC[C@H](C(=O)NCCCCCCC(=O)NO)C3)cc2F)cc1F [Compound 28h, (S)-1-(3-Fluoro-4-(3-(3-fluoro-4-methylphenyl)ureido)benzoyl)-N-(7-(hydroxyamino)-7-oxoheptyl)piperidine-3-carboxamide]

IC50 (HsEH): 1.2 nM
IC50 (MsEH): 7.7 nM
Compound: Cc1cc(NC(=O)Nc2ccc(C(=O)N3CCC[C@H](C(=O)NCCCCCCC(=O)NO)C3)cc2F)ccc1F [Compound 28i, (S)-1-(3-Fluoro-4-(3-(4-fluoro-3-methylphenyl)ureido)benzoyl)-N-(7-(hydroxyamino)-7-oxoheptyl)piperidine-3-carboxamide]

Compound: Cc1ccc(-c2cc(C(F)(F)F)nn2-c2ccc(S(N)(=O)=O)cc2)cc1 [Celecoxib, reference compound]
Inhibition rate [1]: 32.83%
Swelling degree [1]: 10.5 ± 1.5 mg
Swelling rate [1]: 74.21%
pain response, second phasic response [2]: reduced the pain response

Compound: O=C(CCCCCCNC(=O)[C@H]1CCCN(C(=O)c2ccc(NC(=O)Nc3ccc(OC(F)(F)F)c(F)c3)c(F)c2)C1)NO [Compound 28a, (S)-1-(3-Fluoro-4-(3-(3-fluoro-4-(trifluoromethoxy)phenyl)ureido)benzoyl)-N-(7-(hyd-roxyamino)-7-oxoheptyl)piperidine-3-carboxamide]
HDAC6 inhibitor rate (HDAC6): > 91%

Compound: O=C(CCCCCCNC(=O)[C@H]1CCCN(C(=O)c2ccc(NC(=O)NC(c3ccccc3)c3ccccc3)c(F)c2)C1)NO [Compound 28k, (S)-1-(4-(3-Benzhydrylureido)-3-fluorobenzoyl)-N-(7-(hydroxyamino)-7-oxoheptyl) piperidine-3-carboxamide]
HDAC6 inhibitor rate (HDAC6): 63.58%

IC50 (HsEH): 0.7 nM
IC50 (MsEH): 5.4 nM
Compound: O=C(CCCCCCNC(=O)[C@H]1CCCN(C(=O)c2ccc(NC(=O)Nc3ccc(F)c(Cl)c3)c(F)c2)C1)NO [Compound 28e, (S)-1-(4-(3-(3-Chloro-4-fluorophenyl)ureido)-3-fluorobenzoyl)-N-(7-(hydroxyamino)-7-oxoheptyl)piperidine-3-carboxamide]

Compound: C[C@]12C[C@@H]3C[C@](C)(C1)C[C@@](NC(=O)Nc1ccc(C(=O)N4CCC[C@H](C(=O)NCCCCCCC(=O)NO)C4)cc1F)(C3)C2 [Compound 7d, (S)-1-(4-(3-((1r,3R,5S,7S)-3,5-Dimethyladamantan-1-yl)ureido)-3-fluorobenzoyl)-N-(7-(hydroxyamino)-7-oxoheptyl)piperidine-3-carboxamide]
HDAC6 inhibitor rate (HDAC6): 63%

Compound: CC12CC3CC(C)(C1)CC(Nc1c(Nc4ccc(CN5CCC[C@H](C(=O)NCCCCCCC(=O)NO)C5)cc4F)c(=O)c1=O)(C3)C2 [Compound 34d, (S)-1-(4-((2-(((1r,3R,5S,7r)-3,5-Dimethyladamantan-1-yl)amino)-3,4-dioxocyclobut-1-en-1-yl)amino)-3-fluorobenzyl)-N-(7-(hydroxyamino)-7-oxoheptyl)piperidine-3-carb-oxamide]
metabolic stability in RLM, column 0 [3]: 100.00
metabolic stability in RLM, column 10 [3]: 82.82
metabolic stability in RLM, column 30 [3]: 73.29
metabolic stability in RLM, column 45 [3]: 66.27
metabolic stability in RLM, column 60 [3]: 50.51
t1/2 in RLM [3]: 1.223 h

Compound: C[C@]12C[C@@H]3C[C@](C)(C1)C[C@@](NC(=O)Nc1ccc(CN4CCC[C@H](C(=O)NCCCCCCC(=O)NO)C4)cc1F)(C3)C2 [Compound 16d, (S)-1-(4-(3-((1r,3R,5S,7S)-3,5-Dimethyladamantan-1-yl)ureido)-3-fluorobenzyl)-N-(7-(hydroxyamino)-7-oxoheptyl)piperidine-3-carboxamide]
HDAC6 inhibitor rate (HDAC6): 63%
metabolic stability in RLM, column 0 [3]: 100.00
metabolic stability in RLM, column 10 [3]: 89.16
metabolic stability in RLM, column 30 [3]: 79.33
metabolic stability in RLM, column 45 [3]: 52.13
metabolic stability in RLM, column 60 [3]: 46.62
t1/2 in RLM [3]: 0.8165 h
